Laboratory results taken from PMC7159426 (American Journal of Respiratory and Critical Care Medicine, 2020).

Tests used:
[1] = target: T1, TMEM16A (anoctamin-1) (Homo sapiens, UniProt Q5XXA6); assay: whole-cell patch clamp; format: cell-based
T1 sequence (Q5XXA6 1-986): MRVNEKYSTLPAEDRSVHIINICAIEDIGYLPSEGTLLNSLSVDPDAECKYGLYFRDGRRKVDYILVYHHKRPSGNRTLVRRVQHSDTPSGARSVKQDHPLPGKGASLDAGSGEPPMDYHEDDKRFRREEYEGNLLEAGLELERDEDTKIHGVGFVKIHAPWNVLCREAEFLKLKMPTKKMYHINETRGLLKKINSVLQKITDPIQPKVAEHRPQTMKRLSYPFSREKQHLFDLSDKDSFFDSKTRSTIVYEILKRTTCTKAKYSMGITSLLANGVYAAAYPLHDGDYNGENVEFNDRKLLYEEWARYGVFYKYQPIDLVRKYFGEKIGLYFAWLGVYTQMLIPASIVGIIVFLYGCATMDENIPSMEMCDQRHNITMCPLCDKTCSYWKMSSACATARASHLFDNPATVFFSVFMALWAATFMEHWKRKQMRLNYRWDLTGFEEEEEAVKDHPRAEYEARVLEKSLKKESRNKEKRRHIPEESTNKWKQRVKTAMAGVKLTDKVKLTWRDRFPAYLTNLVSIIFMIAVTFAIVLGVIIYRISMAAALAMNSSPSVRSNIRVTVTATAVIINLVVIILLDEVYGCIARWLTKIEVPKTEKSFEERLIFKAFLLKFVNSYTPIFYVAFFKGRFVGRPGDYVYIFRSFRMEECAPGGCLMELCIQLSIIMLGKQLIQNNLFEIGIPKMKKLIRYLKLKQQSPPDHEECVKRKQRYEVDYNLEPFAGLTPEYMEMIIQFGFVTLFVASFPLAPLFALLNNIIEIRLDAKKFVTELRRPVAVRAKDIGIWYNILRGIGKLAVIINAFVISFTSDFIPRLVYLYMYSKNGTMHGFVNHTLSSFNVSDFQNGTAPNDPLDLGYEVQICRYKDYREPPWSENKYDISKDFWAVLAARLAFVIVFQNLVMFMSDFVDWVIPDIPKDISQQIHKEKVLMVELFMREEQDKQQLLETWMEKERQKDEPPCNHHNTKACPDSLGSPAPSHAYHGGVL

[2] = target: T2, sheep TMEM16A (Ovis aries, UniProt A0ACI6NM12); assay: whole-cell patch clamp; format: cell-based
T2 sequence (A0ACI6NM12 1-1040): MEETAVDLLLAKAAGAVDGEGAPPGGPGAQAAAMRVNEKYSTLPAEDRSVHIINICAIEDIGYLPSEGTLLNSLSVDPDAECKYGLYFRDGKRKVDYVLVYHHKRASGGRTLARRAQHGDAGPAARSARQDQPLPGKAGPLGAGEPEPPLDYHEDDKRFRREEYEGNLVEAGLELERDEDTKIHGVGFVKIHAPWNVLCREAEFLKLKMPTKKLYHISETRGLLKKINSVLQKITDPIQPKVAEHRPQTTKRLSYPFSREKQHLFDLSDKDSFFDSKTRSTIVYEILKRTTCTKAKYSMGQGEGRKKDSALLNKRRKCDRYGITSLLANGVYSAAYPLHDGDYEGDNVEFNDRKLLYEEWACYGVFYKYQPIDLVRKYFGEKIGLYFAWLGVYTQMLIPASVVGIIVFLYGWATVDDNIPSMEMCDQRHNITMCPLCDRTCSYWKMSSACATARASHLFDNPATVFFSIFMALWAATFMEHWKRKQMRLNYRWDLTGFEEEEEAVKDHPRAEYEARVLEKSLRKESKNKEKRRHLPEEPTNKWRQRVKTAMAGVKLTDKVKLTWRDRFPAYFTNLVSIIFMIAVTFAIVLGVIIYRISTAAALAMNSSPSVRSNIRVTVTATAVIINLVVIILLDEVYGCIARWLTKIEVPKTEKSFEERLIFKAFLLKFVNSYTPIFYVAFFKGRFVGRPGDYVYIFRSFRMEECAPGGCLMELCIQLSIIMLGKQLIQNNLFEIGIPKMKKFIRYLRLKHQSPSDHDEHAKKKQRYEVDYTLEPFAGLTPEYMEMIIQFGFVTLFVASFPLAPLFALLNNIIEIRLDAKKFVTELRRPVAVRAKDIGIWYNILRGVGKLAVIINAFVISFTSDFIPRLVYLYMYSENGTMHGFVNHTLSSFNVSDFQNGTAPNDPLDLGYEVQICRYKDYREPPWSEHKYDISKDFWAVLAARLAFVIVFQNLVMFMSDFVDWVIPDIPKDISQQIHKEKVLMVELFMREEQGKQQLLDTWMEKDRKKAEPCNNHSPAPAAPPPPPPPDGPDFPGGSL

In the case of ETX001, the EC50 [1] is reported as 0.116 ± 0.016 µM and the EC50 [2] is reported as 0.127 ± 0.021 µM.
